Laboratory results from patent US11459319B2, “Cytochrome P450 inhibitors and uses thereof” (ANGION BIOMEDICA CORP., priority 2014, dated 2022).

T1: CYP26 (Mus musculus, UniProt O55127)
T1 construct: substrate depletion assay for ATRA metabolism in mouse microsomes; tissue Xenotech; host or cells: liver microsomes of mice treated with ATRA for four days
T1 sequence (O55127 1-497): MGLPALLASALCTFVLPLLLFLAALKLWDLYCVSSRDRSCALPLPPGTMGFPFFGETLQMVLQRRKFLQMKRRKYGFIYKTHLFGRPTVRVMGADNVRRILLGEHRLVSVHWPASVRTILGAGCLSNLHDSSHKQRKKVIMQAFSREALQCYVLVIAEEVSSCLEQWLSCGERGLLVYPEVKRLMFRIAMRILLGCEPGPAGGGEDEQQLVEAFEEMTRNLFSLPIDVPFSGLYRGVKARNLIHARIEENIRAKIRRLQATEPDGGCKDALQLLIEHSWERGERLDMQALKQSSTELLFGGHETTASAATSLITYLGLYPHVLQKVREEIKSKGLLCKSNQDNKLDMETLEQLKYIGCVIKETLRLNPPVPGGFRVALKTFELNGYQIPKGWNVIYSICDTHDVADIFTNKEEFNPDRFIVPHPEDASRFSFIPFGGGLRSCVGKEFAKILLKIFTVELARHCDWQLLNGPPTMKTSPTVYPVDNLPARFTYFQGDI

T2: human recombinant enzyme (CYP26) (Homo sapiens, UniProt O43174)
T2 sequence (O43174 1-497): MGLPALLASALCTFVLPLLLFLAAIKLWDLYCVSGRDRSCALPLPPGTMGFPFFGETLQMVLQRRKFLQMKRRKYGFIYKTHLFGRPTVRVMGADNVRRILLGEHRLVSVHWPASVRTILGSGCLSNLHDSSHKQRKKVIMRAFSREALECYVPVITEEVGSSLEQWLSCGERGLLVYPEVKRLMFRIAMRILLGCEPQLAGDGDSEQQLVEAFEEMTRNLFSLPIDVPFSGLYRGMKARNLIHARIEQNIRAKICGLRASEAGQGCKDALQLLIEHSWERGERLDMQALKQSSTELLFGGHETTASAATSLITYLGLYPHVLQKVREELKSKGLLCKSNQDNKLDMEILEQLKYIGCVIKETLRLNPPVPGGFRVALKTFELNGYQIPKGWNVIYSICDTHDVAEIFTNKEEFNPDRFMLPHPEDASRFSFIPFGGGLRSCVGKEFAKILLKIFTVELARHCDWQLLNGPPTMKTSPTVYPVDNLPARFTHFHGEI


Biological target: T1, CYP26
Experiment: CYP26 inhibition: substrate depletion assay for ATRA metabolism in induced mouse liver microsomes
Type: biochemical
Conditions: not given

Molecule	IC50 [nM]
CCC(CC)C(c1ccc2nc(-c3ccc(C(=O)O)cc3)sc2c1)n1cncn1 (stereo not shown) [Example-7, 4-(6-(2-ethyl-1-(1H-1,2,4-triazol-1-yl)butyl)benzo[d]thiazol-2-yl)benzoic Acid]	< 1000
CCC(CC)C(c1ccc2nc(OCC3(C(=O)O)CCCCC3)sc2c1)n1cnnc1 (stereo not shown) [Example-6, 1-(((6-(2-Ethyl-1-(4H-1,2,4-triazol-4-yl)butyl)benzo[d]thiazol-2-yl)oxy)methyl)cyclohexanecarboxylic Acid]	< 1000
CCC(CC)C(c1ccc2nc(OCC3(C(=O)O)CCCCC3)sc2c1)n1cncn1 (stereo not shown) [Example-5, 1-(((6-(2-ethyl-1-(1H-1,2,4-triazol-1-yl)butyl)benzo[d]thiazol-2-yl)oxy)methyl)cyclohexanecarboxylic Acid]	< 1000
CCC(CC)C(c1ccc2nc(OCC(C)(C)C(=O)O)sc2c1)n1cncn1 (stereo not shown) [Example-1, 3-((6-(2-Ethyl-1-(1H-1,2,4-triazol-1-yl)butyl)benzo[d]thiazol-2-yl)oxy)-2,2-dimethylpropanoic Acid]	< 1000
CCC(CC)C(c1ccc2nc(OCC(C)(C)C(=O)O)sc2c1)n1cnnc1 (stereo not shown) [Example-2, 3-((6-(2-Ethyl-1-(4H-1,2,4-triazol-4-yl)butyl)benzo[d]thiazol-2-yl)oxy)-2,2-dimethylpropanoic Acid]	< 1000
CCC(CC)C(c1ccc2nc(-c3ccc(C(=O)O)cc3)sc2c1)n1cnnc1 (stereo not shown) [Example-8, 4-(6-(2-ethyl-1-(4H-1,2,4-triazol-4-yl)butyl)benzo[d]thiazol-2-yl)benzoic Acid]	< 1000
CCC(CC)C(c1ccc2nc(OCC3(C(=O)O)CCCC3)sc2c1)n1cnnc1 (stereo not shown) [Example-4, 1-(((6-(2-Ethyl-1-(4H-1,2,4-triazol-4-yl)butyl)benzo[d]thiazol-2-yl)oxy)methyl)cyclopentanecarboxylic Acid]	< 1000
CCC(CC)C(c1ccc2nc(OCC3(C(=O)O)CCCC3)sc2c1)n1cncn1 (stereo not shown) [Example-3, 1-(((6-(2-Ethyl-1-(1H-1,2,4-triazol-1-yl)butyl)benzo[d]thiazol-2-yl)oxy)methyl)cyclopentanecarboxylic Acid]	< 1000

Substrate: CC1=C(/C=C/C(C)=C/C=C/C(C)=C/C(=O)O)C(C)(C)CCC1
Experiment: cells, lysate or membranes named
Conditions: other: induced mouse microsomes, Michaelis-Menten kinetics; pH 7.4

Molecule	Km [µM]
CYP26 (Mus musculus) (protein) MGLPALLASALCTFVLPLLLFLAALKLWDLYCVSSRDRSCALPLPPGTMGFPFFGETLQMVLQRRKFLQMKRRKYGFIYKTHLFGRPTVRVMGADNVRRILLGEHRLVSVHWPASVRTILGAGCLSNLHDSSHKQRKKVIMQAFSREALQCYVLVIAEEVSSCLEQWLSCGERGLLVYPEVKRLMFRIAMRILLGCEPGPAGGGEDEQQLVEAFEEMTRNLFSLPIDVPFSGLYRGVKARNLIHARIEENIRAKIRRLQATEPDGGCKDALQLLIEHSWERGERLDMQALKQSSTELLFGGHETTASAATSLITYLGLYPHVLQKVREEIKSKGLLCKSNQDNKLDMETLEQLKYIGCVIKETLRLNPPVPGGFRVALKTFELNGYQIPKGWNVIYSICDTHDVADIFTNKEEFNPDRFIVPHPEDASRFSFIPFGGGLRSCVGKEFAKILLKIFTVELARHCDWQLLNGPPTMKTSPTVYPVDNLPARFTYFQGDI	0.004

Biological target: T2, human recombinant enzyme (CYP26)
Experiment: not given
Conditions: read-out: Km reported for the human recombinant enzyme; cited from earlier work

Molecule	Km [µM]
CC1=C(/C=C/C(C)=C/C=C/C(C)=C/C(=O)O)C(C)(C)CCC1 [ATRA, all-trans retinoic acid]	~0.01
